Measured values from patent publication US20250171437A1 (Agios Pharmaceuticals,Inc., priority 2022, published 2025).

target: T1, human PAH with the R408W mutation (A375 R408W cells) (Homo sapiens, UniProt P00439, R408W); assay: Cell Based Phenylalanine Flux Assay; conditions: A375 R408W cells; 24 hrs with compound, then 20 μM sepiapterin and 800 μM 13C9,15N-Phenylalanine for 4 hours; 13C-Tyrosine by LC-MS; average where tested multiple times
T1 construct: expressed in transfected cells
T1 sequence (P00439 1-452 R408W): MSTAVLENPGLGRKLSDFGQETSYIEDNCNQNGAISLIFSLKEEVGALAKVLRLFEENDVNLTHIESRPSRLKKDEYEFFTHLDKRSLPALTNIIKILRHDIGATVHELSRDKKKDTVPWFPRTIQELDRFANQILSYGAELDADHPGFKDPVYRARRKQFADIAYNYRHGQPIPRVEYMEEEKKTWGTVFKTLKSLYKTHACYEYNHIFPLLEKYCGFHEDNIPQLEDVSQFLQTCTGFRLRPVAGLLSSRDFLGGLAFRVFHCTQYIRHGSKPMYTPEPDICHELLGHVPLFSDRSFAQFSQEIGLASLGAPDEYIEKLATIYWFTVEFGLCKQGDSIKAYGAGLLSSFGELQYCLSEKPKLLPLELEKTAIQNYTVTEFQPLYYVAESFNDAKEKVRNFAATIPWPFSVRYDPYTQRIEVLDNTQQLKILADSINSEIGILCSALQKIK
Procedure, shortened: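 A375 cells stably expressing human PAH R408W treated 24 h at 37° C with a 10-point 2-fold dose curve in duplicate, 0.5% DMSO. Then 20 μM sepiapterin and 800 μM 13C9,15N-Phe added for 4 h; 13C-Tyr in media measured by LC-MS to give AC50.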

First: O=C(c1nnc(C2CC2)o1)N1CCc2[nH]cnc2[C@@H]1c1nc2cc(F)ccc2o1 [Example 16, (R)-(5-cyclopropyl-1,3,4-oxadiazol-2-yl)(4-(5-fluorobenzo[d]oxazol-2-yl)-6,7-dihydro-1H-imidazo[4,5-c]pyridin-5(4H)-yl)methanone]
Second: O=C(c1nnc(-c2ccc(F)cc2F)o1)N1CCc2[nH]cnc2[C@H]1c1nc2cc(F)ccc2o1 [Example 84, (S)-(5-(2,4-difluorophenyl)-1,3,4-oxadiazol-2-yl)(4-(5-fluorobenzo[d]oxazol-2-yl)-6,7-dihydro-1H-imidazo[4,5-c]pyridin-5(4H)-yl)methanone]
The AC50 of the first is higher: 1000 to 5000 nM for the first, no more than 500 nM for the second.

`O=C(c1ocnc1C(F)F)N1CCc2[nH]cnc2[C@H]1c1nc2cccc(Br)c2o1` [Example 461, (S)-(4-(7-bromobenzo[d]oxazol-2-yl)-6,7-dihydro-1H-imidazo[4,5-c]pyridin-5(4H)-yl)(4-(difluoromethyl)oxazol-5-yl)methanone] and `O=C(c1ocnc1C(F)F)N1CCc2[nH]cnc2[C@@H]1c1nc2ccccc2o1` [Example 468, (R)-(4-(benzo[d]oxazol-2-yl)-6,7-dihydro-1H-imidazo[4,5-c]pyridin-5(4H)-yl)(4-(difluoromethyl)oxazol-5-yl)methanone] cannot be ordered by AC50: no more than 500 nM for the first, 500 to 1000 nM for the second.

`COc1cc(F)c2oc([C@H]3c4nc[nH]c4CCN3C(=O)c3oc(C(C)(C)O)nc3C(F)F)nc2c1` [Example 644, (R)-(4-(difluoromethyl)-2-(2-hydroxypropan-2-yl)oxazol-5-yl)(4-(7-fluoro-5-methoxybenzo[d]oxazol-2-yl)-6,7-dihydro-1H-imidazo[4,5-c]pyridin-5(4H)-yl)methanone] and `CC(C)(O)c1nc(C(F)F)c(C(=O)N2CCc3[nH]cnc3[C@@H]2c2nc3c(C(F)(F)F)cccc3o2)o1` [Example 464, (R)-(4-(difluoromethyl)-2-(2-hydroxypropan-2-yl)oxazol-5-yl)(4-(4-(trifluoromethyl)benzo[d]oxazol-2-yl)-6,7-dihydro-1H-imidazo[4,5-c]pyridin-5(4H)-yl)methanone] cannot be ordered by AC50: no more than 500 nM for the first, 500 to 1000 nM for the second.

First: C[C@@H](O)c1nc(C(F)F)c(C(=O)N2CCc3[nH]cnc3[C@H]2c2nc3c(F)cccc3o2)o1 [Example 229, (4-(difluoromethyl)-2-((R)-1-hydroxyethyl)oxazol-5-yl)((S)-4-(4-fluorobenzo[d]oxazol-2-yl)-6,7-dihydro-1H-imidazo[4,5-c]pyridin-5(4H)-yl)methanone]
Second: Cc1ncoc1C(=O)N1CCc2[nH]cnc2[C@@H]1c1nc2c(F)cccc2o1 [Example 600, (R)-(4-(4-fluorobenzo[d]oxazol-2-yl)-6,7-dihydro-1H-imidazo[4,5-c]pyridin-5(4H)-yl)(4-methyloxazol-5-yl)methanone]
The AC50 of the first is lower: no more than 500 nM for the first, 1000 to 5000 nM for the second.

`c1ccc2oc([C@@H]3c4nc[nH]c4CN3c3nc4ccccc4o3)nc2c1` (single isomer, unassigned) [Example 931] and `Cc1ncoc1C(=O)N1CCc2[nH]cnc2[C@@H]1c1nc2ccccc2o1` [Example 794, (R)-(4-(benzo[d]oxazol-2-yl)-6,7-dihydro-1H-imidazo[4,5-c]pyridin-5(4H)-yl)(4-methyloxazol-5-yl)methanone] fall in the same range of AC50: 1000 to 5000 nM for the first, 1000 to 5000 nM for the second.

Compared with `COc1cccc2nc([C@@H]3c4nc[nH]c4CCN3C(=O)c3ccnn3C(C)C)oc12` [Example 765, (S)-(1-isopropyl-1H-pyrazol-5-yl)(4-(7-methoxybenzo[d]oxazol-2-yl)-6,7-dihydro-1H-imidazo[4,5-c]pyridin-5(4H)-yl)methanone], `COCc1ccc2c(C(=O)N3CCc4[nH]cnc4[C@@H]3c3nc4cccc(F)c4o3)cnn2c1` [Example 266, (R)-(4-(7-fluorobenzo[d]oxazol-2-yl)-6,7-dihydro-1H-imidazo[4,5-c]pyridin-5(4H)-yl)(6-(methoxymethyl)pyrazolo[1,5-a]pyridin-3-yl)methanone] is higher in AC50: no more than 500 nM for the first, no less than 5000 nM for the second.

First: Cn1ccc(-c2nc(C(F)(F)F)c(C(=O)N3CCc4[nH]cnc4[C@@H]3c3nc4cc(F)ccc4o3)o2)n1 [Example 788, (R)-(4-(5-fluorobenzo[d]oxazol-2-yl)-6,7-dihydro-1H-imidazo[4,5-c]pyridin-5(4H)-yl)(2-(1-methyl-1H-pyrazol-3-yl)-4-(trifluoromethyl)oxazol-5-yl)methanone]
Second: Cn1nc(Cl)cc1C(=O)N1CCc2[nH]cnc2[C@H]1c1nc2cc(F)ccc2o1 [Example 127, (S)-(3-chloro-1-methyl-1H-pyrazol-5-yl)(4-(5-fluorobenzo[d]oxazol-2-yl)-6,7-dihydro-1H-imidazo[4,5-c]pyridin-5(4H)-yl)methanone]
The AC50 of the first is higher: 1000 to 5000 nM for the first, 500 to 1000 nM for the second.

`COc1cccc2oc([C@H]3c4nc[nH]c4CCN3C(=O)c3nnc(-c4cnn(C)c4)o3)nc12` [Example 625, (R)-(4-(4-methoxybenzo[d]oxazol-2-yl)-6,7-dihydro-1H-imidazo[4,5-c]pyridin-5(4H)-yl)(5-(1-methyl-1H-pyrazol-4-yl)-1,3,4-oxadiazol-2-yl)methanone] and `COc1cccc2oc([C@H]3c4nc[nH]c4CCN3C(=O)c3nc(C)nn3C)nc12` [Example 828, (R)-(1,3-dimethyl-1H-1,2,4-triazol-5-yl)(4-(4-methoxybenzo[d]oxazol-2-yl)-6,7-dihydro-1H-imidazo[4,5-c]pyridin-5(4H)-yl)methanone] cannot be ordered by AC50: 1000 to 5000 nM for the first, no less than 5000 nM for the second.

First: CC(O)c1nc(Br)c(C(=O)N2CCc3[nH]cnc3[C@H]2c2nc3cc(F)ccc3o2)o1 (single isomer, unassigned) [Example 225]
Second: CC(C)(O)c1nc(Br)c(C(=O)N2CCc3[nH]cnc3[C@H]2c2nc3cccc(F)c3o2)o1 [Example 263, (S)-(4-bromo-2-(2-hydroxypropan-2-yl)oxazol-5-yl)(4-(7-fluorobenzo[d]oxazol-2-yl)-6,7-dihydro-1H-imidazo[4,5-c]pyridin-5(4H)-yl)methanone]
The AC50 of the first is higher: 1000 to 5000 nM for the first, no more than 500 nM for the second.

First: O=C(c1cnc(-c2ccccn2)s1)N1CCc2[nH]cnc2[C@H]1c1nc2cc(F)ccc2o1 [Example 5, (S)-(4-(5-fluorobenzo[d]oxazol-2-yl)-6,7-dihydro-1H-imidazo[4,5-c]pyridin-5(4H)-yl)(2-(pyridin-2-yl)thiazol-5-yl)methanone]
Second: O=C(c1cnc(-c2ccccn2)s1)N1CCc2[nH]cnc2[C@@H]1c1nc2cc(F)ccc2o1 [Example 6, (R)-(4-(5-fluorobenzo[d]oxazol-2-yl)-6,7-dihydro-1H-imidazo[4,5-c]pyridin-5(4H)-yl)(2-(pyridin-2-yl)thiazol-5-yl)methanone]
The AC50 of the first is lower: no more than 500 nM for the first, 1000 to 5000 nM for the second.

`Cc1ccc2nc([C@H]3c4nc[nH]c4CCN3C(=O)c3ocnc3C(F)F)oc2c1` [Example 883, (R)-(4-(difluoromethyl)oxazol-5-yl)(4-(6-methylbenzo[d]oxazol-2-yl)-6,7-dihydro-1H-imidazo[4,5-c]pyridin-5(4H)-yl)methanone] and `Cc1ccc2oc([C@@H]3c4nc[nH]c4CCN3C(=O)c3nnc(-c4cc[nH]n4)o3)nc2c1` [Example 355, (S)-(5-(1H-pyrazol-3-yl)-1,3,4-oxadiazol-2-yl)(4-(5-methylbenzo[d]oxazol-2-yl)-6,7-dihydro-1H-imidazo[4,5-c]pyridin-5(4H)-yl)methanone] fall in the same range of AC50: 500 to 1000 nM for the first, 500 to 1000 nM for the second.

Compared with `O=C(CCc1cncs1)N1CCc2[nH]cnc2[C@@H]1c1nc2cccc(F)c2o1` [Example 410, (R)-1-(4-(7-fluorobenzo[d]oxazol-2-yl)-6,7-dihydro-1H-imidazo[4,5-c]pyridin-5(4H)-yl)-3-(thiazol-5-yl)propan-1-one], `O=C(c1nnc(-c2ncccc2F)o1)N1CCc2[nH]cnc2[C@H]1c1nc2cccc(F)c2o1` [Example 868, (S)-(4-(7-fluorobenzo[d]oxazol-2-yl)-6,7-dihydro-1H-imidazo[4,5-c]pyridin-5(4H)-yl)(5-(3-fluoropyridin-2-yl)-1,3,4-oxadiazol-2-yl)methanone] is lower in AC50: 1000 to 5000 nM for the first, no more than 500 nM for the second.

`Cc1cccc2nc([C@@H]3c4nc[nH]c4CCN3C(=O)c3nnc(-c4ncccc4F)o3)oc12` [Example 858, (S)-(5-(3-fluoropyridin-2-yl)-1,3,4-oxadiazol-2-yl)(4-(7-methylbenzo[d]oxazol-2-yl)-6,7-dihydro-1H-imidazo[4,5-c]pyridin-5(4H)-yl)methanone] and `O=C(c1nnc(-c2ncccc2F)o1)N1CCc2[nH]cnc2[C@@H]1c1nc2cccc(F)c2o1` [Example 867, (R)-(4-(7-fluorobenzo[d]oxazol-2-yl)-6,7-dihydro-1H-imidazo[4,5-c]pyridin-5(4H)-yl)(5-(3-fluoropyridin-2-yl)-1,3,4-oxadiazol-2-yl)methanone] cannot be ordered by AC50: no more than 500 nM for the first, 500 to 1000 nM for the second.

same assay, conditions: A375 cells expressing R408W PAH; 24 hrs with compound, then 20 μM sepiapterin and 800 μM 13C9,15N-Phenylalanine for 4 hours; 13C-Tyrosine by LC-MS; average where tested multiple times

`O=C(c1nnc(-c2cnn(CC(F)F)c2)o1)N1CCc2[nH]cnc2C1c1nc2cc(F)ccc2o1` (centres unmarked) and `CC(C)(O)Cn1cc(C(=O)N2CCc3[nH]cnc3C2c2nc3cc(F)ccc3o2)cn1` (centres unmarked) cannot be ordered by AC50: 1000 to 5000 nM for the first, no less than 5000 nM for the second.

`CC(C)(O)c1ncc(C(=O)N2CCc3[nH]cnc3C2c2nc3cc(F)ccc3o2)s1` (centres unmarked) and `Cn1nc(C(F)(F)F)nc1C(=O)N1CCc2[nH]cnc2C1c1nc2cc(F)ccc2o1` (centres unmarked) fall in the same range of AC50: 1000 to 5000 nM for the first, 1000 to 5000 nM for the second.

`Cc1ccc2oc(C3c4nc[nH]c4CCN3C(=O)c3cnco3)nc2c1` (centres unmarked) and `O=C(CCc1cnco1)N1CCc2[nH]cnc2C1c1nc2c(F)cccc2o1` (centres unmarked) fall in the same range of AC50: 1000 to 5000 nM for the first, 1000 to 5000 nM for the second.
